# Source: PubChem BioAssay AID1259407 (Chemical Carcinogenesis Research Information System (CCRIS), 2018)
# Activity calls are given as the source filed them. No rule for the calls is given here.
# Test system: CCRIS mutagenicity, Ames/micronucleus/aberration tests
# Assay: CCRIS mutagenicity studies
# [1] = Test System: AMES SALMONELLA TYPHIMURIUM, Strain/Indicator: TA102, Metabolic Activation: RAT, LIVER, S-9, AROCLOR 1254, Method: PREINCUBATION
# [2] = Test System: AMES SALMONELLA TYPHIMURIUM, Strain/Indicator: TA98, Metabolic Activation: NONE, Method: PREINCUBATION
# [3] = Test System: AMES SALMONELLA TYPHIMURIUM, Strain/Indicator: TA100, Metabolic Activation: NONE, Method: PREINCUBATION
# [4] = Test System: AMES SALMONELLA TYPHIMURIUM, Strain/Indicator: TA1535, Metabolic Activation: NONE, Method: PREINCUBATION
# [5] = Test System: AMES SALMONELLA TYPHIMURIUM, Strain/Indicator: TA1537, Metabolic Activation: NONE, Method: PREINCUBATION
# [6] = Test System: AMES SALMONELLA TYPHIMURIUM, Strain/Indicator: TA98, Metabolic Activation: NONE, Method: STANDARD PLATE
# [7] = Test System: AMES SALMONELLA TYPHIMURIUM, Strain/Indicator: TA100, Metabolic Activation: NONE, Method: STANDARD PLATE
smiles,measurement,setting,value
O=S(Cl)Cl,mutagenic call,"Test System: AMES SALMONELLA TYPHIMURIUM, Strain/Indicator: TA100, Metabolic Activation: HAMSTER, LIVER, S-9, AROCLOR 1254 (2.5-20%), Method: PREINCUBATION",active; positive
same,mutagenic call,"Test System: AMES SALMONELLA TYPHIMURIUM, Strain/Indicator: TA102, Metabolic Activation: HAMSTER, LIVER, S-9, AROCLOR 1254, Method: PREINCUBATION",active; positive
same,mutagenic call,[1],active; positive
same,mutagenic call,"Test System: Mouse lymphoma, Strain/Indicator: L5178Y (tk+/tk-), Metabolic Activation: None, Method: Suspension/plate",active; equivocal (previous evaluation positive)
same,mutagenic call,"Test System: Mouse lymphoma, Strain/Indicator: L5178Y (tk+/tk-), Metabolic Activation: Rat, Liver, S-9, Aroclor 1254, Method: Suspension/plate",inactive; inconclusive (previous evaluation negative)
Cc1cccc2cc([N+](=O)[O-])ccc12,mutagenic call,[2],active; positive
CCN,mutagenic call,"Test System: AMES SALMONELLA TYPHIMURIUM, Strain/Indicator: TA98, Metabolic Activation: HAMSTER, LIVER, S-9, AROCLOR 1254 (10%), Method: PREINCUBATION",inactive; negative
same,mutagenic call,[2],inactive; negative
same,mutagenic call,"Test System: AMES SALMONELLA TYPHIMURIUM, Strain/Indicator: TA98, Metabolic Activation: RAT, LIVER, S-9, AROCLOR 1254 (10%), Method: PREINCUBATION",inactive; negative
same,mutagenic call,"Test System: AMES SALMONELLA TYPHIMURIUM, Strain/Indicator: TA100, Metabolic Activation: HAMSTER, LIVER, S-9, AROCLOR 1254 (10%), Method: PREINCUBATION",inactive; negative
same,mutagenic call,[3],inactive; negative
same,mutagenic call,"Test System: AMES SALMONELLA TYPHIMURIUM, Strain/Indicator: TA100, Metabolic Activation: RAT, LIVER, S-9, AROCLOR 1254 (10%), Method: PREINCUBATION",inactive; negative
same,mutagenic call,"Test System: AMES SALMONELLA TYPHIMURIUM, Strain/Indicator: TA1535, Metabolic Activation: HAMSTER, LIVER, S-9, AROCLOR 1254 (10%), Method: PREINCUBATION",inactive; negative
same,mutagenic call,[4],inactive; negative
same,mutagenic call,"Test System: AMES SALMONELLA TYPHIMURIUM, Strain/Indicator: TA1535, Metabolic Activation: RAT, LIVER, S-9, AROCLOR 1254 (10%), Method: PREINCUBATION",inactive; negative
same,mutagenic call,"Test System: AMES SALMONELLA TYPHIMURIUM, Strain/Indicator: TA1537, Metabolic Activation: HAMSTER, LIVER, S-9, AROCLOR 1254 (10%), Method: PREINCUBATION",inactive; negative
same,mutagenic call,[5],inactive; negative
same,mutagenic call,"Test System: AMES SALMONELLA TYPHIMURIUM, Strain/Indicator: TA1537, Metabolic Activation: RAT, LIVER, S-9, AROCLOR 1254 (10%), Method: PREINCUBATION",inactive; negative
COC1=CC(=O)c2nc(C)c3c([nH]c4ccccc43)c2C1=O,mutagenic call,"Test System: AMES SALMONELLA TYPHIMURIUM, Strain/Indicator: TA97, Metabolic Activation: NONE, Method: STANDARD PLATE",active; positive
same,mutagenic call,"Test System: AMES SALMONELLA TYPHIMURIUM, Strain/Indicator: TA97, Metabolic Activation: RAT, LIVER, S-9, AROCLOR 1254, Method: STANDARD PLATE",active; positive
same,mutagenic call,[6],inactive; negative
same,mutagenic call,"Test System: AMES SALMONELLA TYPHIMURIUM, Strain/Indicator: TA98, Metabolic Activation: RAT, LIVER, S-9, AROCLOR 1254, Method: STANDARD PLATE",active; positive
same,mutagenic call,[7],active; positive
same,mutagenic call,"Test System: AMES SALMONELLA TYPHIMURIUM, Strain/Indicator: TA100, Metabolic Activation: RAT, LIVER, S-9, AROCLOR 1254, Method: STANDARD PLATE",inactive; negative
same,mutagenic call,"Test System: AMES SALMONELLA TYPHIMURIUM, Strain/Indicator: TA102, Metabolic Activation: NONE, Method: STANDARD PLATE",inactive; negative
same,mutagenic call,"Test System: AMES SALMONELLA TYPHIMURIUM, Strain/Indicator: TA102, Metabolic Activation: RAT, LIVER, S-9, AROCLOR 1254, Method: STANDARD PLATE",inactive; negative
Cc1ncc(CO)c(CO)c1O,mutagenic call,"Test System: AMES SALMONELLA TYPHIMURIUM, Strain/Indicator: TA97A, Metabolic Activation: NONE, Method: PREINCUBATION",inactive; negative
same,mutagenic call,"Test System: AMES SALMONELLA TYPHIMURIUM, Strain/Indicator: TA97A, Metabolic Activation: RAT, LIVER, S-9, AROCLOR 1254, Method: PREINCUBATION",inactive; negative
same,mutagenic call,"Test System: AMES SALMONELLA TYPHIMURIUM, Strain/Indicator: TA102, Metabolic Activation: NONE, Method: PREINCUBATION",inactive; negative
same,mutagenic call,[1],inactive; negative
N=C(N)S(=O)O,mutagenic call,[2],inactive; negative
same,mutagenic call,"Test System: AMES SALMONELLA TYPHIMURIUM, Strain/Indicator: TA98, Metabolic Activation: RAT LIVER S-9, PHENOBARBITAL AND BETA-NAPHTHOFLAVONE, Method: PREINCUBATION",inactive; negative
same,mutagenic call,[3],inactive; negative
same,mutagenic call,"Test System: AMES SALMONELLA TYPHIMURIUM, Strain/Indicator: TA100, Metabolic Activation: RAT LIVER S-9, PHENOBARBITAL AND BETA-NAPHTHOFLAVONE, Method: PREINCUBATION",inactive; negative
same,mutagenic call,[4],active; positive
same,mutagenic call,"Test System: AMES SALMONELLA TYPHIMURIUM, Strain/Indicator: TA1535, Metabolic Activation: RAT LIVER S-9, PHENOBARBITAL AND BETA-NAPHTHOFLAVONE, Method: PREINCUBATION",active; positive
same,mutagenic call,[5],inactive; negative
same,mutagenic call,"Test System: AMES SALMONELLA TYPHIMURIUM, Strain/Indicator: TA1537, Metabolic Activation: RAT LIVER S-9, PHENOBARBITAL AND BETA-NAPHTHOFLAVONE, Method: PREINCUBATION",inactive; negative
same,mutagenic call,"Test System: E.COLI, Strain/Indicator: WP2UVRA\PKM101, Metabolic Activation: NONE, Method: PREINCUBATION",inactive; negative
same,mutagenic call,"Test System: E.COLI, Strain/Indicator: WP2UVRA\PKM101, Metabolic Activation: RAT LIVER S-9, PHENOBARBITAL AND BETA-NAPHTHOFLAVONE, Method: PREINCUBATION",inactive; negative
O=[N+]([O-])c1ccc2nscc2c1,mutagenic call,[6],active; positive
same,mutagenic call,"Test System: AMES SALMONELLA TYPHIMURIUM, Strain/Indicator: TA98, Metabolic Activation: S-9, Method: STANDARD PLATE",active; positive
same,mutagenic call,[7],active; positive
same,mutagenic call,"Test System: AMES SALMONELLA TYPHIMURIUM, Strain/Indicator: TA100, Metabolic Activation: S-9, Method: STANDARD PLATE",active; positive
same,mutagenic call,"Test System: AMES SALMONELLA TYPHIMURIUM, Strain/Indicator: TA1535, Metabolic Activation: NONE, Method: STANDARD PLATE",active; positive
same,mutagenic call,"Test System: AMES SALMONELLA TYPHIMURIUM, Strain/Indicator: TA1535, Metabolic Activation: S-9, Method: STANDARD PLATE",active; positive
same,mutagenic call,"Test System: AMES SALMONELLA TYPHIMURIUM, Strain/Indicator: TA1537, Metabolic Activation: NONE, Method: STANDARD PLATE",active; positive
same,mutagenic call,"Test System: AMES SALMONELLA TYPHIMURIUM, Strain/Indicator: TA1537, Metabolic Activation: S-9, Method: STANDARD PLATE",active; positive
